The source of these data is US20080227688A1, “Inhibition of viral replication” (priority 2007, published 2008).

The subject of assay [1] is reovirus. The following applies: pharmacological inhibition of cellular cathepsin B; cited from earlier work.
For assay [2], the system named is reovirus. Format: cell-based, Dearing strain of reovirus serotype 3.
Assay [3] concerns reovirus. The assay is described as follows: Electron microscopy of reovirus-infected HT1080 cells. Format: cell-based, Dearing strain of reovirus serotype 3. As to conditions: HT1080, MOI of 40, 20 μM, 48 hr post-infection. Here is the method: FIGS. 2A-2B: Electron microscopic analysis of reovirus infected HT1080 cells in the presence or absence of Z-FA-FMK treatment. HT1080 cells grown to 50-70% confluency were infected with reovirus at MOI of 40, then either Z-FA-FMK (20 μM) or control medium was added in the culture medium. After 48 hr culture, cells were prepared for electron microscopic examination as described in the Examples. (FIG. 2A) HT1080 infected with reovirus in the absence of Z-FA-FMK showing scattered virions and viral inclusions (factory) (arrows) in the perinuclear region. Scale represents 500 nm×10,000 (above). […] Scale represents 100 nm×80,000 (FIG. 2B) HT1080 infected with reovirus in the presence of Z-FA-FMK showing scattered reovirus virion particles (arrows) but no reoviral inclusions in the perinuclear region. Scale represents 500 nm×10,000 (above). Scattered virions with empty shell (arrows) are present in perinuclear region (bottom). Scale represents 200 nm×40,000.
EM preparation was performed by the University of Calgary Microscopy & Imaging Facility. Cells grown on glass slides were rinsed briefly with PBS (phosphate buffered saline) and fixed with 4% EM grade glutaraldehyde in 0.1 M cacodylate buffer (pH 7.4) for 1 hr at room temperature (RT). After washing three times with the same buffer, cells were post-fixed in 1% osmium tetroxide buffered with 0.1 M cacodylate for 1 hr at RT. […]

In the next assay the test system is influenza A virus. Put plainly: Influenza A infection of Mv1Lu cells, FACS. The following applies: 20 μM, 4 days. Format: cell-based, Flu type A (A/New Cale/H1N1).
The next assay relates to HIV type 1 virus. Format: cell-based, HIV type 1 strain (NL4-3).
Assay [4] deals with reovirus. Put plainly: HT1080 tumor xenograft in SCID mice with intratumoral reovirus, immunohistochemistry of tumor and heart. Format: in vivo. As to conditions: 0.02 mg intratumorally, 16 days post-viral injection. The method, then:
FIGS. 4A-4B: Z-FA-FMK blocks reovirus infection in vivo. (FIG. 4A) HT1080 cells were injected subcutaneously into hind flanks of SCID mice. After palpable tumors were established (11 days after implantation), tumors were injected with Live reovirus (L Reo; n=5 tumors), UV-inactivated reovirus (D Reo; n=5 tumors), Z-FA-FMK (FA; n=5 tumors) and Live reovius suspended in Z-FA-FMK solution (Reo+FA; n=5 tumors). Tumor growth was measured externally using calipers. Z-FA-FMK was dissolved in DMSO and administered as 0.02 mg suspended in PBS intratumorally per mouse everyday up to 7 days post viral injection, and every 2 days until completion of the experiment. […] Paraffin sections of tumors and heart tissues were analyzed by indirect immunohistochemical staining using reovirus antiserum as described in the Examples. […]
SCID mice (6-8 weeks, Charles River, Wilmington, Mass.) received a single subcutaneous implantation of 5×10^6 cells of HT1080 cells suspended in PBS. […] Tumor growth was measured externally using calipers and the volume was determined by the equation V=(L×W^2)×0.5, where L is the largest dimension and W is the largest dimension perpendicular to L. Z-FA-FMK was dissolved in DMSO and administered as 0.02 mg suspended in PBS intratumorally per mouse every day up to 7 days post viral injection, and every 2 days until completion of the experiment. […]

The next assay concerns myxoma virus. Format: cell-based, myxoma virus (strain Lausanne).
Another assay addresses cellular cathepsin B (Homo sapiens, UniProt P07858). The following applies: cited from earlier work.

“Also recorded” adds a separate entry of the source. *1 amine or outer side, *2 acyl side, *3 side chain or, on linkers, in order; H or OH if unused. Where a SMILES comes first, the peptide text is derived from it. [ ]: non-standard residue; d: D form. The star is where a group is joined. hPhe = N[CH](CCc1ccccc1)C(=O)O; Morpholide = C1CN(*)CCO1; CO = O=C([*:1])[*:2]; CH2F = FC*

On to `CCCNC(=O)[C@H]1O[C@@H]1C(=O)N[C@H](C(=O)N1CCC[C@H]1C(=O)OC)[C@@H](C)CC` [CA-074Me], for which the reovirus viral yield result in the assay with reovirus [1] is reported as “decreased viral yields yet not a complete blockage of viral yield”.

For `O=C(CF)C(CCc1ccccc1)NC(=O)C(Cc1ccccc1)NC(=O)N1CCOCC1` (stereo not drawn) [Mu-FhF-FMK, N-Morpholineurea-phenylalanyl-homophenylalanyl-fluoromethylketone] ({Morpholide-CO}-Phe-[hPhe]-CH2F; configuration not given here), in the assay on reovirus [2], the reovirus-mediated cytopathogenicity entry is reported as “effectively inhibited reovirus-mediated cytopathogenicity”.

In the case of `C[C@H](NC(=O)[C@H](Cc1ccccc1)NC(=O)OCc1ccccc1)C(=O)CF` [Z-FA-FMK, N-benzyloxycarbonyl-Phe-Ala-fluoromethylketone], in the assay on reovirus [2], the “reoviral replication potential by FACS (reoviral antigen)” value is recorded as “effectively suppressed reoviral replication potential in a dose-dependent manner”; the “reovirus replication (cytopathic morphology, viral antigens by western blotting and FACS)” value is on record as “completely blocked reovirus replication”. Besides, in the assay with reovirus [3], the “viral factory formation (EM)” value is given as “did not form these viral factories” and the “virion morphology (EM)” value is given as “all of the scattered viral particles contained empty capsids”. Besides, in the assay with influenza A virus, the “viral replication activity of influenza A” value is on record as “did not affect viral replication activity”. In addition, in the assay with HIV type 1 virus, the “viral replication activity of HIV-1” value is “did not affect viral replication activity”. Besides, in the assay on reovirus [4], the “reovirus replication activity in heart tissue (immunohistochemistry)” value was “effectively blocked” and the “reovirus replication activity in tumor tissue (immunohistochemistry)” value is “effectively blocked”. For the same compound, in the assay on myxoma virus, the “GFP expression level of BGMK monolayers” value was “significantly suppressed”, the “myxoma infectivity (GFP expressing cells)” value is “inhibitory effects were not detectable” and the “myxoma virus foci development” value is “significantly suppressed as Z-FA-FMK dosages were increased; also recorded: the inhibition of foci development is more readily detectable”. On cellular cathepsin B, the “inactivation of cathepsin B” value is recorded as “potent inactivator of cellular cathepsin B”.

Take “Z-Val-Ala-Asp-fluoromethylketone [Z-VAD-FMK]”: in the assay on reovirus [2], the reovirus-mediated cytopathogenicity entry is listed as “effectively inhibited reovirus-mediated cytopathogenicity”.
